# Laboratory results published in PMC9785863, “Thioether and Ether Furofuran Lignans: Semisynthesis, Reaction Mechanism, and Inhibitory Effect against α-Glucosidase and Free Radicals” (Molecules, 2022).
# Target: T1, rat intestinal maltase
# T1 construct: gene Mgam; native, crude extract of rat intestinal acetone powder (Sigma), not purified; maltose-hydrolysing activity, shared by maltase-glucoamylase and sucrase-isomaltase
# Assay: maltose hydrolysis, glucose assay kit, absorbance at […] nm
# Format: biochemical
# Settings: maltose (2 mM stock), 0.1 M phosphate pH 6.9, 37 °C, 10 min; read-out: α-Glucosidase Inhibitory Effect (IC50, mM) ^a / Maltase
row,Structure (SMILES),IC50
1,CCCCCCCCS[C@H]1OC[C@H]2[C@@H]1CO[C@@H]2c1ccc2c(c1)OCO2 [2α-7a],> 30 mM
2,OCCCCCCS[C@H]1OC[C@H]2[C@@H]1CO[C@@H]2c1ccc2c(c1)OCO2 [2α-7b],> 30 mM
3,c1cc2c(cc1[C@H]1OC[C@H]3[C@@H]1CO[C@@H]3SC1CCCCC1)OCO2 [2α-7c],> 30 mM
4,Oc1ccc(S[C@H]2OC[C@H]3[C@@H]2CO[C@@H]3c2ccc3c(c2)OCO3)cc1 [2α-7f],14.7 ± 1 mM
5,CC(C)(C)c1cc(SC2OCC3C(c4ccc5c(c4)OCO5)OCC23)cc(C(C)(C)C)c1O (stereo not drawn) [2α-7o],11.8 ± 0.3 mM
6,CCCCCCCCO[C@H]1OC[C@H]2[C@@H]1CO[C@@H]2c1ccc2c(c1)OCO2 [2α-9b],> 30 mM
7,Oc1ccc(S[C@@H]2OC[C@H]3[C@@H]2CO[C@@H]3c2ccc3c(c2)OCO3)cc1 [2β-7f],14.2 ± 0.8 mM
8,"C[C@H]1O[C@H](O[C@H]2[C@H](O)[C@@H](O)[C@@H](O[C@H]3[C@H](O)[C@@H](O)C(O)O[C@@H]3CO)O[C@@H]2CO)[C@H](O)[C@@H](O)[C@@H]1N[C@H]1C=C(CO)[C@@H](O)[C@H](O)[C@H]1O (stereo partly drawn) [acarbose, reference compound]",1.4 ± 0.2 mM

# Target: T1, rat intestinal maltase
# Assay: maltose hydrolysis, glucose assay kit, Lineweaver-Burk with secondary replots
# Format: biochemical
# Settings: mixed inhibition; maltose 0.5-8 mM; pH 6.9, 37 °C
# Text: maltose hydrolysis, glucose assay kit, Lineweaver-Burk with secondary replots on rat intestinal maltase
row,Structure (SMILES),Ki
1,CC(C)(C)c1cc(SC2OCC3C(c4ccc5c(c4)OCO5)OCC23)cc(C(C)(C)C)c1O (stereo not drawn) [2α-7o],0.03 mM
